Experimental data from patent US11396517B1, “Exo-aza spiro inhibitors of menin-MLL interaction” (Janssen Pharmaceutica NV, priority 2017, dated 2022).

The compounds below were run against T1, menin (Homo sapiens, UniProt O00255, T541A) (assay: Menin/MLL homogenous time-resolved fluorescence (HTRF) assay). Details: location 1; read-out: (2) location 1 Menin HTRF assay (IC50 (nM)).
T1 construct: Menin (a.a. 1-610-6×his tag)
T1 sequence (O00255 with tags, fused parts or gaps T541A): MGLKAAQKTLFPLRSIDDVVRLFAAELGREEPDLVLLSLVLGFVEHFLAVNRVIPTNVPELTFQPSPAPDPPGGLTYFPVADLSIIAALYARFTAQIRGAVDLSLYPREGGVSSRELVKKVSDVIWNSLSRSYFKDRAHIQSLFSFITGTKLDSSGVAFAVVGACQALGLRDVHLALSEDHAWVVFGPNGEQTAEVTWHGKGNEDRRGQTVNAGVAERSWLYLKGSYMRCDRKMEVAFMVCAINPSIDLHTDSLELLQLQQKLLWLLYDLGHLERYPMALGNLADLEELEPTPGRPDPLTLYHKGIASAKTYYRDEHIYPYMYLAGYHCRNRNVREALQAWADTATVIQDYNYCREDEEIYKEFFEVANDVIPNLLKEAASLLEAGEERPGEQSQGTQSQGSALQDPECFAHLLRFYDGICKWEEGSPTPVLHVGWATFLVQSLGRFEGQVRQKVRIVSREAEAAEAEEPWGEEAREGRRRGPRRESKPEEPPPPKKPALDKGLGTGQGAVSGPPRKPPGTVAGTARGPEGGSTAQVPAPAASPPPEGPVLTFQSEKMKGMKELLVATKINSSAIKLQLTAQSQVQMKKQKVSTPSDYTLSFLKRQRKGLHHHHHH
Assay type: binding
Protocol: 2) Menin/MLL Homogenous Time-Resolved Fluorescence (HTRF) Assay
To an untreated, white 384-well microtiter plate was added 40 nL 200× test compound in DMSO and 4 μL 2× terbium chelate-labeled menin (vide infra for preparation) in assay buffer (40 mM Tris HCl, pH 7.5, 50 mM NaCl, 1 mM DTT and 0.05% Pluronic F-127). After incubation of test compound and terbium chelate-labeled menin for 5 min at ambient temperature, 4 μL 2× FITC-MBM1 peptide (FITC-β-alanine-[…]-NH2 (SEQ ID NO: 23)) in assay buffer was added, the microtiter plate centrifuged at 1000 rpm for 1 min and the assay mixtures incubated for 15 min at ambient temperature. The relative amount of menin.FITC-MBM1 complex present in an assay mixture is determined by measuring the homogenous time-resolved fluorescence (HTRF) of the terbium/FITC donor/acceptor fluorphore pair using a BMG Pherastar plate reader (ex. 337 nm/terbium em. 490 nm/FITC em. 520 nm) at ambient temperature. The degree of fluorescence resonance energy transfer (the HTRF value) is expressed as the ratio of the fluorescence emission intensities of the FITC and terbium fluorophores (Fern 520 nm/Fem 490 nm). The final concentrations of reagents in the binding assay are […] terbium chelate-labeled menin (location 2), 75 nM FITC-MBM1 peptide and 0.5% DMSO in assay buffer. Dose-response titrations of test compounds are conducted using an 11 point, three-fold serial dilution scheme, starting typically at 25 μM (location 1) or starting typically at 10 μM (location 2).
Compound potencies were determined by first calculating % inhibition at each compound concentration according to equation 1: % inhibition=((HC−LC)−(HTRF^compound−LC))/(HC−LC))*100 (Eqn 1)
Where LC and HC are the HTRF values of the assay in the presence or absence of a saturating concentration of a compound that competes with FITC-MBM1 for binding to menin, and HTRF^compound is the measured HTRF value in the presence of the test compound. FTC and LC HTRF values represent an average of at least 16 replicates per plate.
Where Bottom and Top are the lower and upper asymptotes of the dose-response curve, respectively, IC50 is the concentration of compound that yields 50% inhibition of signal and h is the Hill coefficient.
Preparation of Terbium cryptate labeling of Menin: Menin (a.a. 1-610-6×his tag (“6×his” disclosed as SEQ ID NO: 3)) was labeled with terbium cryptate as follows. 2 mg of Menin was buffer exchanged into 1× phosphate buffered saline. 16 uM Menin was incubated with 4-fold molar excess NHS-terbium cryptate (Cisbio Bioassays, Bedford, Mass.) for 2 hours at room temperature. The labeled protein was purified away from free label by running the reaction over a Superdex 200 Increase 10/300 GL column at 0.75 ml/min. Peak fractions were collected, aliquoted and frozen at −80° C.

Structure (SMILES)	IC50
N#CCc1cccc(C(=O)NC2CC3(CCN(c4ncnc5sc(CC(F)(F)F)cc45)C3)C2)c1 (stereo not drawn) [Compound 8]	1250 nM
CC(C)(C#N)c1cccc(C(=O)NC2CC3(CCN(c4ncnc5sc(CC(F)(F)F)cc45)C3)C2)c1 (stereo not drawn) [Compound 9]	3810 nM
N#CCc1cccc(C(=O)NC2CCC3(C2)CN(c2ncnc4sc(CC(F)(F)F)cc24)C3)c1 (stereo not drawn) [Compound 18]	3840 nM
CC(C)(C#N)c1cccc(C(=O)NC2CCC3(C2)CN(c2ncnc4sc(CC(F)(F)F)cc24)C3)c1 (stereo not drawn) [Compound 19]	3630 nM
N#CCc1ccc(C(=O)NC2CCC3(C2)CN(c2ncnc4sc(CC(F)(F)F)cc24)C3)cc1 (stereo not drawn) [Compound 20]	2020 nM

Same assay, conditions: location 2; read-out: (2) location 2 Menin HTRF assay (IC50 (nM))

Structure (SMILES)	IC50
CC(=O)Nc1ccc(NC2CC3(CCN(c4ncnc5sc(CC(F)(F)F)cc45)C3)C2)cc1 (single isomer, unassigned) [Compound 332]	330 nM
CN1CCN(C(=O)c2ccc(NC3CC4(CCN(c5ncnc6sc(CC(F)(F)F)cc56)C4)C3)cc2)CC1 (single isomer, unassigned) [Compound 337]	2300 nM
CN1CCN(C(=O)c2ccc(NC3CC4(CCN(c5ncnc6sc(CC(F)(F)F)cc56)C4)C3)cc2)CC1 (single isomer, unassigned) [Compound 338]	89.5 nM
Nc1nc(N2CCC3(CC(Nc4ccc5[nH]c(=O)[nH]c5c4)C3)C2)c2cc(CC(F)(F)F)sc2n1 (single isomer, unassigned) [Compound 383]	70.8 nM
N#CCc1ccc(NC2CCC3(C2)CN(c2nc(N)nc4sc(CC(F)(F)F)cc24)C3)cc1 (single isomer, unassigned) [Compound 388]	217 nM
N#CCc1ccc(NC2CCC3(C2)CN(c2nc(N)nc4sc(CC(F)(F)F)cc24)C3)cc1 (single isomer, unassigned) [Compound 389]	96 nM
CNc1nc(N2CCC3(CC(Nc4ccc(CC#N)cc4)C3)C2)c2cc(CC(F)(F)F)sc2n1 (single isomer, unassigned) [Compound 391]	163 nM
CNc1nc(N2CCC3(CC(Nc4ccc(CC#N)cc4)C3)C2)c2cc(CC(F)(F)F)sc2n1 (single isomer, unassigned) [Compound 392]	16.8 nM
CNc1nc(N2CCC3(CC(Nc4ccc5[nH]c(=O)[nH]c5c4)C3)C2)c2cc(CC(F)(F)F)sc2n1 (single isomer, unassigned) [Compound 395]	113 nM
COC[C@@H]1CN(C(=O)c2ccc(NC3CC4(CCN(c5ncnc6sc(CC(F)(F)F)cc56)C4)C3)cc2)CCO1 (single isomer, unassigned) [Compound 409]	1100 nM
O=C(c1ccc(NC2CC3(CCN(c4ncnc5sc(CC(F)(F)F)cc45)C3)C2)cc1)N1CC2(COC2)C1 (single isomer, unassigned) [Compound 414]	100 nM
FC(F)(F)Cc1cc2c(N3CC4(CC[C@@H](NC5(c6ccccc6)CC5)C4)C3)ncnc2s1 (stereo in doubt) [Compound 112]	313 nM
FC(F)(F)Cc1cc2c(N3CC4(CC[C@H](NC5(c6ccccc6)CC5)C4)C3)ncnc2s1 (stereo in doubt) [Compound 113]	164 nM
COc1nc(N2CC3(CC[C@@H](NCc4cccc(-c5cc[nH]n5)c4)C3)C2)c2cc(CC(F)(F)F)sc2n1 (stereo in doubt) [Compound 115]	160 nM
N#CCc1ccc(N[C@@H]2CC[C@]3(CCN(c4ncnc5sc(CC(F)(F)F)cc45)C3)C2)cc1 (stereo in doubt) [Compound 146]	23.7 nM
N#CCc1cccc(C(=O)NC2CC3(CCN(c4ncnc5sc(CC(F)(F)F)cc45)C3)C2)c1 (stereo not drawn) [Compound 8]	1010 nM
CC(C)(C#N)c1cccc(C(=O)NC2CC3(CCN(c4ncnc5sc(CC(F)(F)F)cc45)C3)C2)c1 (stereo not drawn) [Compound 9]	1220 nM
N#CCc1cccc(C(=O)NC2CCC3(C2)CN(c2ncnc4sc(CC(F)(F)F)cc24)C3)c1 (stereo not drawn) [Compound 18]	1620 nM
CC(C)(C#N)c1cccc(C(=O)NC2CCC3(C2)CN(c2ncnc4sc(CC(F)(F)F)cc24)C3)c1 (stereo not drawn) [Compound 19]	3560 nM
N#CCc1ccc(C(=O)NC2CCC3(C2)CN(c2ncnc4sc(CC(F)(F)F)cc24)C3)cc1 (stereo not drawn) [Compound 20]	2790 nM
O=S(=O)(NC1CC2(CCN(c3ncnc4sc(CC(F)(F)F)cc34)C2)C1)c1ccccc1 (stereo not drawn) [Compound 24]	419 nM
O=C(NC1CCC2(C1)CN(c1ncnc3sc(CC(F)(F)F)cc13)C2)c1cccc(-c2cc[nH]n2)c1 (stereo not drawn) [Compound 30]	3890 nM

Structure (SMILES)	IC50
O=C(NC1CC2(CCN(c3ncnc4sc(CC(F)(F)F)cc34)C2)C1)c1ccccc1 (stereo not drawn) [Compound 36]	7520 nM
O=S(=O)(NC1CCC2(CCN(c3ncnc4sc(CC(F)(F)F)cc34)C2)C1)c1ccccc1 (stereo not drawn) [Compound 39]	1440 nM
Cn1cc(NC2CCC3(C2)CN(c2ncnc4sc(CC(F)(F)F)cc24)C3)cn1 (stereo not drawn) [Compound 43]	1750 nM
O=C1CN(C(=O)c2ccc(NC3CC4(CCN(c5ncnc6sc(CC(F)(F)F)cc56)C4)C3)cc2)CCN1 (stereo not drawn) [Compound 104]	16.6 nM
N#CCc1cccc(NC2CCC3(C2)CN(c2ncnc4sc(CC(F)(F)F)cc24)C3)c1 (stereo not drawn) [Compound 114]	157 nM
COc1nc(N2CC3(CCC(NCc4ccc5[nH]c(=O)[nH]c5c4)C3)C2)c2cc(CC(F)(F)F)sc2n1 (stereo not drawn) [Compound 117]	111 nM
CNC(=O)c1ccc(NC2CCC3(C2)CN(c2nc(NC)nc4sc(CC(F)(F)F)cc24)C3)cc1 (stereo not drawn) [Compound 123]	137 nM
N#CCc1cccc(S(=O)(=O)NC2CCC3(CCN(c4ncnc5sc(CC(F)(F)F)cc45)C3)C2)c1 (stereo not drawn) [Compound 124]	2530 nM
N#CCc1ccc(S(=O)(=O)NC2CCC3(CCN(c4ncnc5sc(CC(F)(F)F)cc45)C3)C2)cc1 (stereo not drawn) [Compound 125]	5940 nM
N#CCc1ccc(C(=O)NC2CCC3(CCN(c4ncnc5sc(CC(F)(F)F)cc45)C3)C2)cc1 (stereo not drawn) [Compound 126]	> 10000 nM
N#CCc1cccc(C(=O)NC2CCC3(CCN(c4ncnc5sc(CC(F)(F)F)cc45)C3)C2)c1 (stereo not drawn) [Compound 127]	> 10000 nM
O=C(NC1CCC2(CCN(c3ncnc4sc(CC(F)(F)F)cc34)C2)C1)c1ccccc1 (stereo not drawn) [Compound 128]	> 10000 nM
N#Cc1cccc(NC2CCC3(CCN(c4ncnc5sc(CC(F)(F)F)cc45)C3)C2)c1 (stereo not drawn) [Compound 132]	180 nM
CC(C)(C#N)c1ccc(NC2CC3(CCN(c4ncnc5sc(CC(F)(F)F)cc45)C3)C2)cc1 (stereo not drawn) [Compound 169]	425 nM
N#CCc1cccc(NC2CC3(CCN(c4ncnc5sc(CC(F)(F)F)cc45)C3)C2)c1 (stereo not drawn) [Compound 201]	175 nM
Cc1nc(N2CCC3(CC(Nc4ccccc4)C3)C2)c2cc(CC(F)(F)F)sc2n1 (stereo not drawn) [Compound 264]	913 nM
O=c1ccc(NC2CCC3(C2)CN(c2ncnc4sc(CC(F)(F)F)cc24)C3)c[nH]1 (stereo not drawn) [Compound 283]	2160 nM
FC(F)(F)Cc1cc2c(N3CC4(CCC(Nc5ccc6cc[nH]c6c5)C4)C3)ncnc2s1 (stereo not drawn) [Compound 284]	423 nM
CNc1nc(N2CC3(CCC(Nc4ccc(CC#N)cc4)C3)C2)c2cc(CC(F)(F)F)sc2n1 (stereo not drawn) [Compound 400]	373 nM
CNc1nc(N2CC3(CCC(Nc4ccc5oc(=O)[nH]c5c4)C3)C2)c2cc(CC(F)(F)F)sc2n1 (stereo not drawn) [Compound 401]	331 nM
CNc1nc(N2CC3(CCC(Nc4ccc5[nH]c(=O)[nH]c5c4)C3)C2)c2cc(CC(F)(F)F)sc2n1 (stereo not drawn) [Compound 402]	906 nM
